Data taken from patent US11089783B2, “2-(het)aryl-substituted fused heterocycle derivatives as pesticides” (Bayer Aktiengesellschaft, priority 2017, dated 2021).

Columns and labels:
Type in all cases: in vivo
Lucilia cuprina = Lucilia cuprina test; details: 48 h, L1 larvae, after 2 days, read-out: efficacy (kill)
Procedure: Solvent: dimethyl sulfoxide To produce a suitable active ingredient formulation, 10 mg of active ingredient are mixed with 0.5 ml of dimethyl sulfoxide, and the concentrate is diluted with water to the desired concentration. About 20 L1 larvae of the Australian sheep blowfly (Lucilia cuprina) are transferred into a test vessel containing minced horsemeat and the active ingredient formulation of the desired concentration. After 2 days, the kill in % is determined. 100% means that all the larvae have been killed; 0% means that no larvae have been killed.

Musca domestica = Musca domestica test; details: 100 ppm, adult houseflies, after 2 days
Procedure: Solvent: dimethyl sulfoxide To produce a suitable active ingredient formulation, 10 mg of active ingredient are mixed with 0.5 ml of dimethyl sulfoxide, and the concentrate is diluted with water to the desired concentration. Vessels containing a sponge treated with sugar solution and the active ingredient formulation of the desired concentration are populated with 10 adult houseflies (Musca domestica). After 2 days, the kill in % is determined. 100% means that all of the flies have been killed; 0% means that none of the flies have been killed.

Myzus persicae [1] = assay: Myzus persicae oral test; details: 120 h, after 5 days, read-out: efficacy
Procedure: [table] To produce a suitable active ingredient formulation, 1 part by weight of active ingredient is dissolved with the stated parts by weight of solvent and made up to the desired concentration with water. 50 μl of the active ingredient preparation are transferred into microtitre plates and made up to a final volume of 200 μl with 150 μl of IPL41 insect medium (33%+15% sugar). Subsequently, the plates are sealed with parafilm, which a mixed population of green peach aphids (Myzus persicae) within a second microtitre plate is able to puncture and imbibe the solution. After 5 days, the efficacy in % is determined. 100% means that all the aphids have been killed; 0% means that no aphids have been killed.

Myzus persicae [2] = assay: Myzus persicae spray test (MYZUPE), Chinese cabbage leaf discs; details: Myzus persicae, foliar, 120 h
Procedure: (§1) [table] To produce a suitable active ingredient formulation, 1 part by weight of active ingredient is dissolved with the specified parts by weight of solvent and made up to the desired concentration with water containing an emulsifier concentration of 1000 ppm. To produce further test concentrations, the formulation is diluted with emulsifier-containing water. Discs of Chinese cabbage leaves (Brassica pekinensis) infested by all stages of the green peach aphid (Myzus persicae) are sprayed with an active ingredient formulation of the desired concentration. After 5 days, the efficacy in % is determined. 100% means that all the aphids have been killed; 0% means that no aphids have been killed. [table] To produce an appropriate active ingredient formulation, 1 part by weight of active ingredient is dissolved with the stated parts by weight of solvent and made up with water containing an emulsifier concentration of 1000 ppm until the desired concentration is attained. For production of further test concentrations, the mixture is diluted with emulsifier-containing water. Discs of chinese cabbage leaves (Brassica pekinensis) infested by all stages of the green peach aphid (Myzus persicae) are sprayed with an active ingredient formulation of the desired concentration. After the desired time, the efficacy in % is determined. 100% means that all aphids have been killed; 0% means that no aphids have been killed.

Phaedon cochleariae = Phaedon cochleariae spray test (PHAECO), Chinese cabbage leaf discs; details: Phaedon cochleariae, foliar, 168 h; for pest or weed control at 100 g/ha: 7 days (7 dat), read-out: efficacy
Procedure: as §1, with “pekinensis)” for “pekinensis) infested by all stages of the green peach aphid (Myzus persicae)”, “concentration and, after drying, populated with larvae of the mustard beetle (Phaedon cochleariae).” for “concentration.”, “7” for “5”, “beetle larvae” for “aphids”

Ctenocephalides felis [3] = assay: Ctenocephalides felis in vitro contact test with adult cat fleas; details: 5 μg/cm^2 (=500 g/ha), after 48 h
Procedure: For the coating of the test tubes, 9 mg of active ingredient are first dissolved in 1 ml of acetone p.a. and then diluted to the desired concentration with acetone p.a. 250 μl of the solution are distributed homogeneously on the inner walls and the base of a 25 ml glass tube by turning and rocking on an orbital shaker (rocking rotation at 30 rpm for 2 h). With 900 ppm of active ingredient solution and internal surface area 44.7 cm^2, given homogeneous distribution, an area-based dose of 5 μg/cm^2 is achieved. After the solvent has evaporated off, the tubes are populated with 5-10 adult cat fleas (Ctenocephalides felis), sealed with a perforated plastic lid and incubated in a horizontal position at room temperature and ambient humidity. After 48 h, efficacy is determined. To this end, the tubes are stood upright and the fleas are knocked to the base of the tube. Fleas which remain motionless at the base or move in an uncoordinated manner are considered to be dead or moribund. […] 100% efficacy means that all the fleas were dead or moribund. 0% efficacy means that no fleas were harmed.

Ctenocephalides felis [4] = assay: Ctenocephalides felis oral test; details: 100 ppm, after 2 days
Procedure: Solvent: dimethyl sulfoxide To produce a suitable active ingredient formulation, 10 mg of active ingredient are mixed with 0.5 ml of dimethyl sulfoxide. Dilution with citrated cattle blood gives the desired concentration. About 20 unfed adult cat fleas (Ctenocephalides felis) are placed into a chamber which is closed at the top and bottom with gauze. A metal cylinder whose bottom end is closed with parafilm is placed onto the chamber. The cylinder contains the blood/active ingredient formulation, which can be imbibed by the fleas through the parafilm membrane. After 2 days, the kill in % is determined. 100% means that all of the fleas have been killed; 0% means that none of the fleas have been killed.

Aphis gossypii = Aphis gossypii spray test (APHIGO), cotton plants; details: Aphis gossypii, 144 h, 20 ppm, 6 dat, read-out: % efficacy
Procedure: (§2) [table] To produce an appropriate active ingredient formulation, 1 part by weight of active ingredient is dissolved with the specified parts by weight of solvent and made up with water containing an emulsifier concentration of 1000 ppm until the desired concentration is attained. To produce further test concentrations, the mixture is diluted with emulsifier-containing water. If addition of ammonium salts or/and penetrants is required, these are each added to the preparation solution in a concentration of 1000 ppm. Cotton plants (Gossypium hirsutum) severely infested by the cotton aphid (Aphis gossypii) are sprayed with an active ingredient formulation of the desired concentration. After the desired time, the kill in % is determined. 100% means that all aphids have been killed; 0% means that no aphids have been killed.

Myzus persicae [5] = assay: Myzus persicae drench test (MYZUPE D), savoy cabbage plants; details: soil, 240 h, 10 dat, read-out: % efficacy
Procedure: [table] To produce an appropriate active ingredient formulation, 1 part by weight of active ingredient is mixed with the specified amounts of solvent and emulsifier and the concentrate is diluted to the desired concentration with water, it being necessary to take into account the volume of soil into which drenching is effected. It should be ensured that a concentration of 40 ppm of emulsifier in the soil is not exceeded. For production of further test concentrations, the mixture is diluted with water. Savoy cabbage plants (Brassica oleracea) in soil pots, infested by all stages of the green peach aphid (Myzus persicae), are drenched with an active ingredient formulation of the desired concentration. After the desired time, the efficacy in % is determined. 100% means that all the aphids have been killed; 0% means that no aphids have been killed.

Nezara viridula = Nezara viridula spray test (NEZARA / NEZAVI); details: Nezara viridula, 96 h, 4 dat, read-out: % efficacy
Procedure: as §2, with “ppm. Barley” for “ppm. Cotton”, “plants (Hordeum vulgare) infected with larvae of” for “plants (Gossypium hirsutum) severely infested by”, “the southern green shield bug (Nezara viridula)” for “the cotton aphid (Aphis gossypii)”, “the efficacy” for “the kill”, “all bugs” for “all aphids”, “no bugs” for “no aphids”

Meloidogyne incognita = Meloidogyne incognita test (MELGIN); details: Meloidogyne incognita, 336 h, 14 days (14 dat), read-out: efficacy (nematicidal, gall formation)
Procedure: [table] To produce a suitable active ingredient formulation, 1 part by weight of active ingredient is mixed with the stated amount of solvent and the concentrate is diluted to the desired concentration with water. Vessels are filled with sand, active ingredient solution, an egg/larvae suspension of the southern root-knot nematode (Meloidogyne incognita) and lettuce seeds. The lettuce seeds germinate and the plants develop. The galls develop on the roots. After 14 days, the nematicidal efficacy in % is determined by the formation of galls. 100% means that no galls were found; 0% means that the number of galls on the treated plants corresponds to the untreated control. [table] To produce an appropriate active ingredient formulation, 1 part by weight of active ingredient is mixed with the specified amount of solvent and the concentrate is diluted to the desired concentration with water. Vessels are filled with sand, active ingredient solution, an egg/larvae suspension of the southern root-knot nematode (Meloidogyne incognita) and lettuce seeds. The lettuce seeds germinate and the plants develop. The root-knots develop on the roots. After the desired time, the nematicidal effect is determined from the formation of root-knots in %. 100% means that no root-knots were found; 0% means that the number of root-knots on the treated plants corresponds to that on the untreated control.

Tetranychus urticae = Tetranychus urticae spray test, OP-resistant (TETRUR); details: Tetranychus urticae, 144 h; TETRUR, 100 g/ha, 6 dat; read-out: % efficacy
Procedure: [table] To produce a suitable active ingredient formulation, 1 part by weight of active ingredient is dissolved with the specified parts by weight of solvent and made up to the desired concentration with water containing an emulsifier concentration of 1000 ppm. To produce further test concentrations, the formulation is diluted with emulsifier-containing water. Discs of bean leaves (Phaseolus vulgaris) infested with all stages of the greenhouse red spider mite (Tetranychus urticae) are sprayed with an active ingredient formulation of the desired concentration. After 6 days, the efficacy in % is determined. 100% means that all the spider mites have been killed; 0% means that no spider mites have been killed.

Myzus persicae [6] = assay: Myzus persicae spray test (MYZUPE S), bell pepper plants; details: 144 h, 6 dat, read-out: % efficacy
Procedure: [table] To produce an appropriate active ingredient formulation, 1 part by weight of active ingredient is dissolved with the specified parts by weight of solvent and made up with water containing an emulsifier concentration of 1000 ppm until the desired concentration is attained. To produce further test concentrations, the mixture is diluted with emulsifier-containing water. If addition of ammonium salts or/and penetrants is required, these are each added to the preparation solution in a concentration of 1000 ppm. Bell pepper plants (Capsicum annuum) severely infested by the green peach aphid (Myzus persicae) are treated by spraying with the active ingredient formulation in the desired concentration. After the desired time, the kill in % is determined. 100% means that all the animals have been killed; 0% means that no animals have been killed.

[7] = 5 days (5 dat), read-out: efficacy

SMILES | pest or weed control at 100 ppm (Lucilia cuprina) [%] | pest or weed control at 0.8 ppm (Myzus persicae [1]) [%] | pest or weed control at 100 g/ha (Myzus persicae [2]; [7]) [%] | pest or weed control at 100 g/ha (Phaedon cochleariae) [%] | efficacy (Ctenocephalides felis [3]) [%] | efficacy (kill) (Ctenocephalides felis [4]) [%] | percent efficacy (larval mortality) at a fixed application rate at 20 g/ha (Phaedon cochleariae; PHAECO, 20 g/ha, 7 dat) [%] | further results
CCNC(=O)c1ccc(S(=O)(=O)CC)c(-c2nc3cc(C(F)(F)C(F)(F)F)nnc3n2C)n1 [Example I-04, N-ethyl-5-(ethylsulfonyl)-6-[7-methyl-3-(pentafluoroethyl)-7H-imidazo[4,5-c]pyridazin-6-yl]pyridine-2-carboxamide] | 100 | 100 | 100 | 100 | – | – | – | efficacy (kill) (Musca domestica): 80%
CNC(=O)Nc1ccc(S(C)(=O)=O)c(-c2nc3cc(C(F)(F)C(F)(F)F)nnc3n2C)n1 [Example I-11] | 100 | 100 | – | 100 | 100 | 100 | – | Emax at 20 g/ha (Phaedon cochleariae; PHAECO, 20 g/ha, 7 dat, read-out: % efficacy): 83%; Emax at 20 ppm (Aphis gossypii): 95%; Emax at 0.8 ppm (Myzus persicae [5]; 0.8 ppm): 95%; Emax at 4 ppm (Myzus persicae [5]; 4 ppm): 98%; Emax at 20 g/ha (Nezara viridula; 20 g/ha): 100%
CN(C)C(=O)Nc1ccc(S(C)(=O)=O)c(-c2nc3cc(C(F)(F)C(F)(F)F)nnc3n2C)n1 [Example I-12] | 100 | 100 | 90 | 100 | 100 | 100 | 100 | pest or weed control at 20 ppm (Meloidogyne incognita): 100%; pest or weed control at 20 g/ha (Myzus persicae [2]; 20 g/ha, 5 days (5 dat), read-out: efficacy): 90%
CCS(=O)(=O)c1ccc(N(C)C(=O)NC)nc1-c1nc2cc(C(F)(F)F)nnc2n1C [reference compound] | – | – | – | – | – | – | 33 | Emax at 4 g/ha (Myzus persicae [2]; MYZUPE, 4 g/ha, 5 dat, read-out: % efficacy): 0%; Emax at 4 g/ha (Phaedon cochleariae; PHAECO, 4 g/ha, 7 dat, read-out: % efficacy): 0%; Emax at 100 g/ha (Tetranychus urticae): 0%; Emax at 0.16 ppm (Myzus persicae [6]; 0.16 ppm): 20%; Emax at 0.8 ppm (Myzus persicae [6]; 0.8 ppm): 65%; Emax at 0.16 ppm (Myzus persicae [5]; 0.16 ppm): 0%; Emax at 4 g/ha (Nezara viridula; 4 g/ha): 0%
